Measured values: patent US7326722B2, “N-[Phenyl(piperidin-2-yl)methyl]benzamide derivatives, their preparation and their application in therapy” (Sanofi-Aventis, priority 2002, dated 2008)
Counter-ions that a name gives are not always drawn.

melting point	Compound
126 to 128 °C	C[N+]1([O-])CCCCC1C(NC(=O)c1cccc(C(F)(F)F)c1Cl)c1ccccc1 (centres unmarked) (as salt: HCl) [Compound No. 69]
100 to 102 °C	C[N+]1([O-])CCCCC1C(NC(=O)c1cccc(C(F)(F)F)c1Cl)c1ccccc1 (centres unmarked) (as salt: HCl) [Compound No. 70]
